Data as given in a melting point compilation (Tetko et al.; mined from patent text by program, amines drawn as free bases though some values may be those of a salt).

SMILES	melting point
CN(C)CCc1ccc(O)c2[nH]nnc12	207 to 211 °C
O=P(O)(O)C1(P(=O)(O)O)Cc2ccccc2C1	55 to 57 °C
CC(=O)C(=Cc1ccc2c(c1)OCO2)C(=O)OCc1ccccc1	137 to 138 °C
CC(=O)OC(Cn1cncn1)(CC(Cl)(Cl)Cl)c1ccc(Cl)cc1 (configuration not stated)	112 to 114 °C
O=C(CC1c2ccccc2Sc2ccccc21)Nc1ccc(C(=O)O)cc1	265 to 266 °C
CCCOc1nc2ccc(Cl)cc2c(=O)n1CCC	64 to 66 °C
NCc1ccc(N2C(=O)N(c3ccccc3Br)Cc3cnc(Nc4ccccc4)nc32)cc1	133 to 136 °C
O=C(O)c1ccc2c(c1)ncn2-c1cc(Cl)ccc1O	308 to 310 °C
O=C(CS(=O)CCNC(=O)c1ccco1)NCCCOc1cccc(CN2CCCCC2)c1 (configuration not stated)	101 to 102 °C
Cc1ccc(Nc2nc(C)c(-c3nc4ccccc4c(=O)n3-c3ccc(Cl)cc3)s2)cc1	> 275 °C
Cc1c(C)c2c(c(C)c1N)[C@H](c1ccc(C(C)C)cc1)[C@H](C)O2 (relative stereo)	91 to 92 °C
C(=C1COc2ccc3c4c(nnc1c24)C(=Cc1ccccc1)CO3)c1ccccc1	242 °C
CCCCn1cc(C(=O)C(=O)O)c2cc(-c3ccc(C(F)(F)F)cc3)ccc21	149 °C
O=C(CCc1ccc(CNCc2ccccc2)cc1)Nc1ccc(-c2ccc(Cl)cc2)cc1	176 °C
Cc1ccc2nc3[nH]c(=O)[nH]c3cc2c1C	> 300 °C
COC(=O)COc1cccc2c(CNS(=O)(=O)CCCCCc3ccccc3)coc12	84.5 to 85.5 °C
CC1C(=O)NN(c2cc(Cl)cc(Cl)c2)C1=O (configuration not stated)	95 to 100 °C
CCOC(=O)c1ccc(-c2coc(-c3ccccc3)n2)cc1	110 to 112 °C
CCCCCCCCCCCCCCOCC(COCCCCCCCCCCCCCC)(CC(=O)O)CC(=O)O	84 to 86 °C
CCC12CCC3C4CCC(=O)C=C4CCC3C1CCC2(C)O (configuration not stated)	128 to 129 °C
CCCCCCCCCCCCCCCCO[C@@H]1CCCO[C@H]1COCc1ccccc1 (relative stereo)	28.5 to 29.5 °C

SMILES	melting point
Cn1c(C(F)(F)F)cc(=O)n(-c2c(F)cc(Cl)c3cc(CS(C)(=O)=O)oc23)c1=O	209 to 211 °C
Cc1ccc2nc(CCl)nc(Cl)c2c1	111 to 112 °C
COc1ccc(C(=O)c2cccc([N+](=O)[O-])c2)cc1OC	133 to 135 °C
Cc1ccc(C(c2ccccc2)C(O)CN(C)C)cc1 (configuration not stated)	55 to 58 °C
CCOC(=O)N=P(c1ccccc1)(c1ccccc1)c1ccccc1CN1CCCC1	120 to 122 °C
COc1ccccc1N1CCN(C(=O)c2ccccc2C(c2ccc(O)cc2)c2ccc(O)cc2)CC1	229 to 231 °C
Cc1ccc(COc2ccccc2C=C2CCCCC2N2CCC2)cc1 (configuration not stated)	88 to 90 °C
CCCCCCCCCCCC1=NCCN1CCCCO	58 to 60 °C
CCOc1ccc(-c2nc(C3=CCN(C)CC3)cs2)cc1OCC	81.2 to 83.6 °C
O=C(O)c1cc(S(=O)(=O)NCCc2ccc(Cl)cc2)ccc1Cl	176 to 178 °C
O=c1ncn(Cc2ccc(Cl)cc2)c2cc(-c3ccc(OCc4ccccn4)cc3)sc12	257 to 259 °C
CCOC(=O)c1ncn2c1CN(C)C(=O)c1ccccc1-2	163 to 165 °C
CC(=O)OCC(N=O)C(C)(C)Cl (configuration not stated)	117 to 119 °C
CON(c1ccc(C#N)cc1Cl)S(=O)(=O)c1ccc(C)cc1	145 to 147 °C
O=C(CBr)C(O)(CBr)c1ccc(F)cc1 (configuration not stated)	90 °C
CCOC(=O)c1cnc(Cc2ccc(OC)c(OC)c2)c2cc(OC)c(OC)cc12	117 to 119 °C
NS(=O)(=O)c1ccc(-n2nc(C(F)(F)F)cc2-c2ccc(-c3ccco3)cc2)cc1Cl	193 °C
CC(C)[C@H](N)C(=O)NC(=O)N(CCCl)N=O	115 to 117 °C
CCN(CC)C(=O)c1c(C(=O)NN=Cc2ccc(Cl)cc2)[nH]c2ccccc12	255 to 257 °C
CC(C)=Cc1ccc(-c2ccc(CCCI)cc2)cc1	58 to 61 °C
CCCCCCCCCCCCCN1CC(=O)C(C#N)=C1N	214 to 215 °C

SMILES	melting point
COc1cc2nc(O)nc(O)c2c(OC)c1OC	> 250 °C
O=c1[nH]c2cc(Cl)ccc2n1CCCBr	162 °C
Cc1cc(Cc2cnc(NCCCN(Cc3ccccc3)c3ccccn3)[nH]c2=O)cnc1C	95 to 99 °C
CCN(CC)CCCN1C(=O)NC(Cc2c[nH]c3ccccc23)C1=O (configuration not stated)	90 °C
CCN(CC)C(=O)n1cnc(S(=O)(=O)Cc2ccccc2)n1	87 to 88 °C
CCn1ccc(-c2ccc(C(=O)N3Cc4cccn4Cc4ccccc43)cc2)n1	180 to 183 °C
CCOc1cc(O)c2cc(C(C)=O)ccc2n1	210 to 219 °C
CCCc1c(C(=O)O)c(=O)cc(-c2ccccc2)n1C	150 °C
O=C(CCNC(=O)[C@H](Cc1ccccc1)OP(=O)(O)CCCCc1ccccc1)OCc1ccccc1	64 to 70 °C
OCC(O)(c1ccccc1)C(Cl)c1ccccc1 (configuration not stated)	108 to 109 °C
CCn1c(=O)n(N(Cc2ccccc2)Cc2ccccc2)c(=O)c2cc(F)c(F)cc21	133 to 135 °C
CCCCCCCCCCCCCCCCOCC(CO)OCCCCCCCCCCCCCC (configuration not stated)	42 to 43 °C
CN1Cc2c(Br)ncn2-c2cccc(Cl)c2C1=O	178 to 179 °C
COc1cc(OC)c2c(=O)[nH]c(-c3ccc4[nH]c(CCO)cc4c3)nc2c1	237 to 238 °C
Cn1cccc1C1=C(c2cn(C)c3ccccc23)C(=O)NC1=O	248 to 250 °C
CC(=O)C(Cl)=CSC(C)(C)C	73 °C
COC(=O)c1ccc(O)c(C=NO)c1	155 °C
Cn1cc(C(=O)c2ccncc2)cc1C(=O)c1ccc(Cl)cc1	174 to 175 °C
O=C(O)CN(CC(=O)O)CC(=O)Nc1c(F)c(F)c(F)c(F)c1F	182 to 183 °C

Other lines, results leading:

melting point	SMILES
79.5 °C	CC(C)(C)OC(=O)N1CCN2C(=O)N(c3cc(Cl)cc(Cl)c3)C(=O)C2(Cc2ccc(Br)cc2)C1 (configuration not stated)
124 °C	CC(=O)N1CCC(CC(=O)O)CC1
195 to 198 °C	COC(=O)C1Cc2c([nH]c3ccccc23)C(c2cc3ccccc3o2)N1 (configuration not stated)
139 to 140 °C	CCOC(=O)c1cccc(-c2ccc(F)c3cc(CBr)sc23)c1
318 to 321 °C	CCNC(=O)Nc1nc2cc(-c3cccnc3)cc(-c3nnc(C)o3)n2n1
130 to 132 °C	Cc1ccc(CCC(=O)c2ccc(N3CCN(c4ccncc4)CC3)cc2)cc1
105 to 106 °C	CC(C)(C)OC(=O)N1C(=O)[C@H](O)[C@@H]1CC1CCCCC1
64 °C	CSc1cc(C(F)(F)F)ccc1C(=O)CC(=O)C1CC1
63 to 66 °C	CCCCOC(=O)C1Oc2ccccc2Cc2ccccc2O1
155 to 156 °C	CCOC(=O)C(C)(C)NC(=O)c1cccc(C2=NC(C)(C)Cc3cc(OCC)c4c(c32)CC(C)(C)O4)c1
50 to 53 °C	CCOC(=O)CNC(=O)n1nc(Oc2c(Cl)cc(C(F)(F)F)cc2Cl)cc1C
164 to 166 °C	CCCCN(Cc1ccc(-c2ccccc2-c2nnn[nH]2)cc1)c1nc(C)ncc1C(=O)OCC
144 °C	CCCC(=O)c1cnc2c(OC)nccc2c1Nc1ccccc1C
137 to 141 °C	Cc1noc([C@@]2(C)CC[C@@H](NCC(=O)N3C[C@@H](F)C[C@H]3C#N)C2(C)C)n1
143 °C	COC(=O)Cc1nsc(NC(=O)c2ccccc2)n1
202 to 204 °C	CC(=O)Nc1nc(CCc2ccc(N)cc2)c(-c2ccc(S(C)(=O)=O)cc2)s1
208 °C	C=CCn1cc(C(=O)O)c(=O)c2cc(F)c(N3CCN(C)CC3)cc21
202 to 204 °C	CC1(C)CC(=O)C2=C(C1)NC1=C(C(=O)CC(C)(C)C1)C2c1ccc(Cl)c(Sc2ccccc2)c1
117 to 118 °C	Cc1ccc(C2c3c(C)cc(C)c(C)c3OC2(C)C)cc1 (configuration not stated)
158 to 159 °C	Cc1nc(OCC=C(F)F)c(C#N)c(N2CCc3ccccc3CC2)n1
60.4 to 62.3 °C	COCCOc1cc(OCCN2CCCC2)c2c(=O)[nH]c(-c3cc(C)nc(C)c3)nc2c1

melting point	SMILES
200 to 201 °C	CC1(C)CCC(C)(C)c2cc(-c3cc(-c4ccc(C(=O)O)cc4)ccc3OCCCCCCO)ccc21
103 °C	Fc1ccc2c(c1)CC[C@H](CNCCNc1ncccn1)O2
127 to 129 °C	CC(C)(C)C1CCC(=O)C(CC(=O)c2ccccc2)C1 (configuration not stated)
185 to 194 °C	OC1OC2CC3CC(C2)OC1O3 (configuration not stated)
99 to 101 °C	COC(=O)CC1=CCN(C)c2ccc(Cl)cc21
295 to 297 °C	Cc1c(C(=O)O)oc2cc(-c3ccc(Cn4c(C)nc5ccccc54)cc3)ccc12
108 to 112 °C	Cc1cc(O)c(SC(C)(C)C)c(=O)o1
127 to 130 °C	COc1ccc(Cn2cnc3c(-c4ccco4)nc(C)nc32)cc1
190 to 191 °C	COc1ccc(N2CCN(S(=O)(=O)[C@H](C)[C@](O)(Cn3cncn3)c3ccc(F)cc3F)CC2)cc1
133 to 135 °C	CC(=O)c1ccc(OCCCOc2cc(NC(=O)C(=O)O)c(C)cc2Br)c(CCC(F)(F)F)c1O
76 to 77 °C	O=C1c2ccccc2C2(CCCC2)C(=O)N1CCO
98 to 99 °C	CCOC(=O)/C=C/c1cc(OCOC)nn1Cc1ccc(Cl)cc1Cl
61 to 62 °C	CC(C)(C)OC(=O)NCCc1ccc(O)cc1
123 to 124 °C	CC(C)c1c2n(c(=O)c3ccccc13)CCCS2
74 to 77 °C	COc1cc(NC(=O)OC(C)CN2CCC(c3nn(C)c4cc(F)ccc34)CC2)cc(OC)c1OC (configuration not stated)
134 to 135 °C	Cc1c(C(=O)N[C@H](C)[C@](O)(Cn2cncn2)c2ccc(F)cc2F)cnn1-c1ccc(OC(F)(F)F)cc1
157 to 160 °C	CC(C)c1cc(C(C)C)c(CC(=O)NS(=O)(=O)Oc2c(C(C)C)cc(C=CC#N)cc2C(C)C)c(C(C)C)c1
132 to 133 °C	CS(=O)(=O)c1nccn1CC(=O)Cl
200 to 202 °C	Cc1ccc(-c2nc3ccc(N(C)C)cn3c2CN(C)C(=O)CC(C)C)cc1
116 °C	CCc1c(C)c2c(c(O)c1C/C=C(\C)CCC(=O)OC)C(=O)OC2
